In publication doi:10.1101/2025.03.14.643404, “A Bivalent Molecular Glue Linking Lysine Acetyltransferases to Oncogene-induced Cell Death” (bioRxiv, 2025):

What was measured:
p300 = biological target: T1, p300 (Homo sapiens, UniProt P41182+Q09472); assay: p300 immunoprecipitation-mass spectrometry in SUDHL5; format: cell-based; conditions: SUDHL5, 1 nM, 2 h, vs DMSO
T1 construct: endogenous in cells; host or cells: SUDHL5
Experimental: (§1) 50 million FLAG-BCL6 knock-in SUDHL5 cells were treated compound or DMSO (0.1%) at indicated doses for 2 hours. Cells were lysed in NE10 buffer (20 mM HEPES (pH 7.5), 10 mM KCl, 1 mM MgCl2, 0.1% Triton X-100 (v/v), protease inhibitors (Roche), 15 mM ß-mercaptoethanol), dounced 15 times and pelleted 5 min at 500 g. Nuclei were washed in NE10 buffer and then digested with 250 units benzonase (Millipore) for 30 min rotating at 25°C. Nuclei were resuspended in NE150 buffer (NE10 supplemented with 150mM NaCl) and incubated for 20 min. Lysates were pelleted at 16,000 g for 20 min at 4°C and supernatants were immunoprecipitated by incubating with 2.5 μg FLAG M2 antibody (F1804, Millipore-Sigma) or 2.5 μg p300 (A300–358A, Bethyl Laboratories) antibody with Dynabeads Protein G (Thermo Fisher) overnight at 4°C. The IP fraction was recovered by magnetic separation followed by three washes with NE10 buffer containing 150mM–300mM NaCl but without Triton-X. For mass spectrometry analysis, the IP was then eluted from the beads with Ammonium Hydroxide, pH 11–12; 3% v/v. […]
(§2) The reconstituted desalted peptides were then analyzed using a nanoElute 2 UHPLC (Bruker Daltonics, Bremen, Germany) coupled to a timsTOF HT (Bruker Daltonics, Bremen, Germany) via a CaptiveSpray nano-electrospray source. […]

FLAG-tagged BCL6 = biological target: T2, FLAG-tagged BCL6 (Homo sapiens, UniProt P41182+Q09472+Q92793); assay: FLAG IP-MS in FLAG-tagged BCL6 knock-in SUDHL5; format: cell-based; conditions: FLAG-BCL6 SUDHL5, 1 nM, 2 h
T2 construct: endogenous in cells; host or cells: SUDHL5, CRISPR genomic knock-in at the BCL6 stop codon
Experimental: as §1, §2

p300^WT = p300^WT (Homo sapiens, UniProt Q09472); assay: TR-FRET binary displacement assay, p300 WT bromodomain; format: binding; conditions: α = Kd binary/Kd ternary
Experimental: Drugs were digitally dispensed (Tecan D300e) into protein-containing wells, and the plate was allowed to incubate in the dark for 1 hour at room temperature. Emission at 490 nm (terbium) and 520 nm (FITC) was measured on a PHERAstar FS plate reader (BMG Labtech) upon excitation with 337 nm. The ratio of signal at 520 nm to 490 nm was calculated and normalized to DMSO-treated protein.

DB = assay: Cell viability, 7 days compound treatment (Cell Titer-Glo), DB; format: cell-based; conditions: Homo sapiens, 168 h, read-out: IC50 of antiproliferation
Experimental: Fifteen thousand cells were seeded in 100 μl of media per well of a U-bottom 96-well plate and treated with digitally dispensed drugs (Tecan D300e) for the indicated times and doses. After 96 hours, plates were centrifuged for 750 rpm for 3 minutes, and old media was exchanged for 100 μl of fresh media. Drug treatment was then repeated at the indicated doses. 72 hours following media change, cells were transferred to 96 well flat-bottom opaque plates. Viability was measured by adding 25 μL Cell Titer-Glo reagent (Promega G7570) to each well and luminescence was measured (BMG Labtech Pherastar FS). The background luminescence was subtracted, and the signal was normalized to DMSO-treated cells. IC50 measurements on cell lines were calculated using at least three biological replicates by separate cell passages. Fit of dose–response curves to data and statistical analysis was performed using GraphPad PRISM using the four-parameter log(inhibitor) vs response function.

T2 sequence (Q92793 2-2442 limits assumed, other chains not shown): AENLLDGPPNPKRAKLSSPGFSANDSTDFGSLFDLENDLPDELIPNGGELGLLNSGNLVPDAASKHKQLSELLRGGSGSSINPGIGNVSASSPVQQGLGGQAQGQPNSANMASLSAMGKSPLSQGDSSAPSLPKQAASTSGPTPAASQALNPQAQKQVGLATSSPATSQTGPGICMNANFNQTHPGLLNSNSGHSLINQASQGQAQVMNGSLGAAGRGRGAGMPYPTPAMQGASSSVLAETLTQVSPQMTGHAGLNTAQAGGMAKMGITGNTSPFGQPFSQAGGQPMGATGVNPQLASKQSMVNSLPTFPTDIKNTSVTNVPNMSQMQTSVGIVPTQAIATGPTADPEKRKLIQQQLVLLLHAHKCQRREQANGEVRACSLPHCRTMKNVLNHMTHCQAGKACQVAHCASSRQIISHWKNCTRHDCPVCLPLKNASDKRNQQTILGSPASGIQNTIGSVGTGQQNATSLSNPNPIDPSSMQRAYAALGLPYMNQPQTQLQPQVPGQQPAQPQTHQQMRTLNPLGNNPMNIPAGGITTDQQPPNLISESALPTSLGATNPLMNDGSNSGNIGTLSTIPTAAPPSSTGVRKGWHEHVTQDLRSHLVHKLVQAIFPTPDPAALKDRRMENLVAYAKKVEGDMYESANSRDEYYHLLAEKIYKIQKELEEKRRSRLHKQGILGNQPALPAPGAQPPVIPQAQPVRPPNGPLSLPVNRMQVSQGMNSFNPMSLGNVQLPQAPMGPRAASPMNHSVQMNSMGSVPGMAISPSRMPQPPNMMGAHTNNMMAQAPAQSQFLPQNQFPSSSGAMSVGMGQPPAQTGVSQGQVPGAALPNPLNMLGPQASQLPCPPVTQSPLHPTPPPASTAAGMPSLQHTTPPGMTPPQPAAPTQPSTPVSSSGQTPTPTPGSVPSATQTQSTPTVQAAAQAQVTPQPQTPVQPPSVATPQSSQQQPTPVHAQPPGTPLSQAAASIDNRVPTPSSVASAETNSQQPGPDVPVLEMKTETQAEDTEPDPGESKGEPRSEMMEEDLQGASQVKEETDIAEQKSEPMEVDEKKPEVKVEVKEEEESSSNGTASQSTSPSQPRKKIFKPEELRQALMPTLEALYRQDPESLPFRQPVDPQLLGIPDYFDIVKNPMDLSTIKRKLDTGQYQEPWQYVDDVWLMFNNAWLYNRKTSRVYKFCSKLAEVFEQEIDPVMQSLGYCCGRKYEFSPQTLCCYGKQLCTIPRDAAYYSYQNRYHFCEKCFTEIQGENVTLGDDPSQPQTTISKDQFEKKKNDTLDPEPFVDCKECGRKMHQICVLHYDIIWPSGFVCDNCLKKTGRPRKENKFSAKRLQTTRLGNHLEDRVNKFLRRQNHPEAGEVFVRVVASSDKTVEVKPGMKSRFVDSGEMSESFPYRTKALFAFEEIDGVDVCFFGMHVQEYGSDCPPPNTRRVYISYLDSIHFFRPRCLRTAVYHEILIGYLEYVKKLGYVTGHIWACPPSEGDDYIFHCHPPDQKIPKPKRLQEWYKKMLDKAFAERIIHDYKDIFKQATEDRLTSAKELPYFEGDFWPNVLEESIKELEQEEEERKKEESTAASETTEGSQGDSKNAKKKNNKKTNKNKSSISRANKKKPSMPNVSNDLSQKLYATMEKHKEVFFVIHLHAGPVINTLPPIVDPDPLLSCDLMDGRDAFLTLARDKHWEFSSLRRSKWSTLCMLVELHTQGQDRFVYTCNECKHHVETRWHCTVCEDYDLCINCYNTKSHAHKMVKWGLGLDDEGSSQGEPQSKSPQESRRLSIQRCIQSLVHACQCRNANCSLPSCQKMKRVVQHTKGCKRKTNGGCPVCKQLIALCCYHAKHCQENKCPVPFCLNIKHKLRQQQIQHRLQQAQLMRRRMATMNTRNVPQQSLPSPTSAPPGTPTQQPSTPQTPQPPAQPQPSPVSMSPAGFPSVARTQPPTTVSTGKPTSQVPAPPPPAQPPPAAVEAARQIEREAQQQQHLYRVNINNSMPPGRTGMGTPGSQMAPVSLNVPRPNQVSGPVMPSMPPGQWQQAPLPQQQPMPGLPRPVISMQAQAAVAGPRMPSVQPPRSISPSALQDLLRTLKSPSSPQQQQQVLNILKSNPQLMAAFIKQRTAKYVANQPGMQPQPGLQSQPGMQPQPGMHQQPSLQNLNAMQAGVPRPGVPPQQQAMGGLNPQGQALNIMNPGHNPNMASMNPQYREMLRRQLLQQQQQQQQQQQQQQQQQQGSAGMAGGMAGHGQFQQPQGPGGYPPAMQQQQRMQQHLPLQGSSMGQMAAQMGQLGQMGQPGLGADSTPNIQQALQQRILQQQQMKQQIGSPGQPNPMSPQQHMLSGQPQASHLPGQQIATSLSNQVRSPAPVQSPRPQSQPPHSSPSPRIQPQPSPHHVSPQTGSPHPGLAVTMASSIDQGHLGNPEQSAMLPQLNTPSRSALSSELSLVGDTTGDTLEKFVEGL
T2 sequence (Q09472 2-2414 limits assumed, other chains not shown): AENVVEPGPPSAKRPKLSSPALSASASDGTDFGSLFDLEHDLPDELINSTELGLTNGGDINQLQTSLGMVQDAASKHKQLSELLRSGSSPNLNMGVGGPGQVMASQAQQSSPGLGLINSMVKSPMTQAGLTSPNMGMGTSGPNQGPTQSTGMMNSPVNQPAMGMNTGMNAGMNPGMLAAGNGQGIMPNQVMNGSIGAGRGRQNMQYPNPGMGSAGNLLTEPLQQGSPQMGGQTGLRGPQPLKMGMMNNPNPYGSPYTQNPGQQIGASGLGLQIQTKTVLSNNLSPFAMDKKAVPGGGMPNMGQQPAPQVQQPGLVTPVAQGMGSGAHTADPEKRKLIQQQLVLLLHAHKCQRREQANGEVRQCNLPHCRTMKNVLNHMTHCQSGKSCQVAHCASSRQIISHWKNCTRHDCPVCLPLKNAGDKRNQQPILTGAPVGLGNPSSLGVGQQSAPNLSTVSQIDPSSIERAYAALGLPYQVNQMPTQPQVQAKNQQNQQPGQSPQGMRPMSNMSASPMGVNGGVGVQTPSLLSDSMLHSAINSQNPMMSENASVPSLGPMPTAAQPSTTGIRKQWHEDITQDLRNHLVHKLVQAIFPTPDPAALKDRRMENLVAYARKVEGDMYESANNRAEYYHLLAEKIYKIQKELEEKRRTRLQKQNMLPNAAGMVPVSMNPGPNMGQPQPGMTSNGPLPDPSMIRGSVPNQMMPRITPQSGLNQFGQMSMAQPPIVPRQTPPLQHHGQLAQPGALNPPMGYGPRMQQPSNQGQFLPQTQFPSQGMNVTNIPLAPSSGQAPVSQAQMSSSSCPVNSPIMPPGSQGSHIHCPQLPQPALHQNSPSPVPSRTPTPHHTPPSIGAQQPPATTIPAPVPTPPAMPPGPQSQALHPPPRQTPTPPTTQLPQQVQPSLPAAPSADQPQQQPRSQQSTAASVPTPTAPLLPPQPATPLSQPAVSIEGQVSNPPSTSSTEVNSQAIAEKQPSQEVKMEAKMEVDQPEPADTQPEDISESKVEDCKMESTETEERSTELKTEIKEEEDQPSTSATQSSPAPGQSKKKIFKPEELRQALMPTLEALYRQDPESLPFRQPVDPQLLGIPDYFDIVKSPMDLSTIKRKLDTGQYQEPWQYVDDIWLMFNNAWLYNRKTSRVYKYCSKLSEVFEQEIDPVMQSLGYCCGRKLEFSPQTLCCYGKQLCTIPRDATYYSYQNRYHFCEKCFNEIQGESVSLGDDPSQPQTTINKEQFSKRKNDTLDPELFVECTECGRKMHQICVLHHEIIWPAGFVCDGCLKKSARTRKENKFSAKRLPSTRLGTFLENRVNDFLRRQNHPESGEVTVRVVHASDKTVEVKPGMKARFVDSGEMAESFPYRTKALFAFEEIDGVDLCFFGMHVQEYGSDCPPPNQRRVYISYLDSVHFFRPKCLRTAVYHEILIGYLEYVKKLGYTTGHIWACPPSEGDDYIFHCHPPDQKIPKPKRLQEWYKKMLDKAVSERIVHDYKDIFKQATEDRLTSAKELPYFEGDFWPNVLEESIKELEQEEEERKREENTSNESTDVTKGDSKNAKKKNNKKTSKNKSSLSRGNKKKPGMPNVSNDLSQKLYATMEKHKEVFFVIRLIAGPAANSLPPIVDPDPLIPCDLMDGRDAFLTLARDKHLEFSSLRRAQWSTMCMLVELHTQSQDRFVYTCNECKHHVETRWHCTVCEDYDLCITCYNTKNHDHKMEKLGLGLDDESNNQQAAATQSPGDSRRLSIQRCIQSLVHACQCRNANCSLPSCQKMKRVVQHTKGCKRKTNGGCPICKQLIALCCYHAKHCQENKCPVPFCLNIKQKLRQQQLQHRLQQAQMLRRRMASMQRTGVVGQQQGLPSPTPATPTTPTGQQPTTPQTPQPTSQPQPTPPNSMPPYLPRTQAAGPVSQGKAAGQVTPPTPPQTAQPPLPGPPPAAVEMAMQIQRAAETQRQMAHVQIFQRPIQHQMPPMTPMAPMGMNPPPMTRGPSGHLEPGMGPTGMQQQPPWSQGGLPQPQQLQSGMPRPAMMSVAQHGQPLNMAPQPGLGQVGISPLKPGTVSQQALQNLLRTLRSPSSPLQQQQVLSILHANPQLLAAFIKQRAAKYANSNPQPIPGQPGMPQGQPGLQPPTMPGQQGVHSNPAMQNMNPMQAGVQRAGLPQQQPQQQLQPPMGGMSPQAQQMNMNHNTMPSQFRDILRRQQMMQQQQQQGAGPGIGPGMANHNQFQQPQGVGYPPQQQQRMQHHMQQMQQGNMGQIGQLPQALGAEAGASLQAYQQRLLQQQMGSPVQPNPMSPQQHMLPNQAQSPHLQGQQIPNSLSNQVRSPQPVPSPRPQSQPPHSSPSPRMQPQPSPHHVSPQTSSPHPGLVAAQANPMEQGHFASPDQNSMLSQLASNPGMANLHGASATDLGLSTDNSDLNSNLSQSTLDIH
Sequence of p300^WT (Q09472 1049-1156 limits assumed): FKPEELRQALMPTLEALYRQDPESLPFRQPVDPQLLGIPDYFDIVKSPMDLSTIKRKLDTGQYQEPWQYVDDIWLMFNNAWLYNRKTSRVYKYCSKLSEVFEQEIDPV
T1 sequence (Q09472 2-2414 limits assumed, other chains not shown): as the sequence (Q09472 2-2414 limits assumed, other chains not shown) above

- enrichment of BCL6 in p300 IP, log2(fold change) (p300): 4.0
- enrichment of CBP in FLAG-BCL6 IP, log2(fold change) (FLAG-tagged BCL6; vs DMSO): 3.7
- enrichment of p300 in FLAG-BCL6 IP, log2(fold change) (FLAG-tagged BCL6; no peptides in DMSO, imputed): 3.7
- cooperativity α (p300^WT): 4.2
Structure (SMILES): CNC(=O)COc1cc2cc(Nc3nc(N4CCC(C(=O)N5CCN(CCC(=O)N6CCC(n7nc(N8CCCc9cc(-c%10cnn(C)c%10)c(C(F)F)cc98)c8c7CCN(C(=O)NC)C8)CC6)CC5)CC4)ncc3Cl)cc(OC)c2n(C)c1=O [TCIP3]
- IC50 (DB): 9.8 nM
